Experiments:
Experiment in all cases: Post-emergence herbicidal activity test (stem and leaf spray, pot culture)
Format in all cases: in vivo
Details in all cases: 3 weeks after spraying
Setaria viridis = test system: Setaria viridis
Outline: (§1)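 Greenhouse pot-grown weeds (loam, pH 7) sprayed post-emergence at 2- to 3-leaf stage with acetone/Tween 80 formulation plus 1.5 liters/ha methyl oleate, at 10, 5 and 2.5 g/mu. Fresh-weight growth control rated 3 weeks later on 0–5 grade scale.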

Echinochloa crusgalli = test system: Echinochloa crusgalli
Outline: as §1

Amaranthus retroflexus = test system: Amaranthus retroflexus
Outline: as §1

Portulaca oleracea = test system: Portulaca oleracea
Outline: as §1

Abutilon theophrasti = test system: Abutilon theophrasti
Outline: as §1

Trifoliumre pensL. = test system: Trifoliumre pensL.
Outline: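 Pot-grown weeds in loam (pH 7), greenhouse at 20–30 °C, sprayed once post-emergence at the 2–3-leaf stage. Compound in acetone with Tween 80 plus methyl oleate oil (1.5 L/ha), applied at 10, 5 and 2.5 g/mu by spray tower. Effect scored 3 weeks after spraying, averaged over three repeats.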

Structure (SMILES)	Post-emergence herbicidal activity, S. viridis (grade) (Setaria viridis; dosage 2.5 g/mu)	Post-emergence herbicidal activity, S. viridis (grade) (Setaria viridis; dosage 5 g/mu)	Post-emergence herbicidal activity, S. viridis (grade) (Setaria viridis; dosage 10 g/mu)	Post-emergence herbicidal activity, E. crusgalli (grade) (Echinochloa crusgalli; dosage 2.5 g/mu)	Post-emergence herbicidal activity, E. crusgalli (grade) (Echinochloa crusgalli; dosage 5 g/mu)	Post-emergence herbicidal activity, E. crusgalli (grade) (Echinochloa crusgalli; dosage 10 g/mu)	Post-emergence herbicidal activity, A. retroflexus (grade) (Amaranthus retroflexus; dosage 2.5 g/mu)	Post-emergence herbicidal activity, A. retroflexus (grade) (Amaranthus retroflexus; dosage 5 g/mu)	Post-emergence herbicidal activity, A. retroflexus (grade) (Amaranthus retroflexus; dosage 10 g/mu)	Post-emergence herbicidal activity, P. oleracea (grade) (Portulaca oleracea; dosage 2.5 g/mu)	Post-emergence herbicidal activity, P. oleracea (grade) (Portulaca oleracea; dosage 5 g/mu)	Post-emergence herbicidal activity, P. oleracea (grade) (Portulaca oleracea; dosage 10 g/mu)	Post-emergence herbicidal activity, A. theophrasti (grade) (Abutilon theophrasti; dosage 2.5 g/mu)	Post-emergence herbicidal activity, A. theophrasti (grade) (Abutilon theophrasti; dosage 5 g/mu)	Post-emergence herbicidal activity, A. theophrasti (grade) (Abutilon theophrasti; dosage 10 g/mu)	Post-emergence herbicidal activity, Trifoliumre pensL. (grade) (Trifoliumre pensL.; dosage 2.5 g/mu)	Post-emergence herbicidal activity, Trifoliumre pensL. (grade) (Trifoliumre pensL.; dosage 5 g/mu)	Post-emergence herbicidal activity, Trifoliumre pensL. (grade) (Trifoliumre pensL.; dosage 10 g/mu)
O=C1C2=C(CCCC2)C(=O)N1c1cc(OCc2nnc(-c3ccc(I)cc3)o2)c(Cl)cc1F [Compound B17]	2 (Grade 2: the growth control rate is greater than or equal to 20% and less than 40%)	3 (Grade 3: the growth control rate is greater than or equal to 40% and less than 60%)	4 (Grade 4: the growth control rate is greater than or equal to 60% and less than 85%)	1 (Grade 1: the growth control rate is greater than or equal to 5% and less than 20%)	2 (Grade 2: the growth control rate is greater than or equal to 20% and less than 40%)	3 (Grade 3: the growth control rate is greater than or equal to 40% and less than 60%)	5 (Grade 5: the growth control rate is greater than or equal to 85%)	5 (Grade 5: the growth control rate is greater than or equal to 85%)	5 (Grade 5: the growth control rate is greater than or equal to 85%)	5 (Grade 5: the growth control rate is greater than or equal to 85%)	5 (Grade 5: the growth control rate is greater than or equal to 85%)	5 (Grade 5: the growth control rate is greater than or equal to 85%)	5 (Grade 5: the growth control rate is greater than or equal to 85%)	5 (Grade 5: the growth control rate is greater than or equal to 85%)	5 (Grade 5: the growth control rate is greater than or equal to 85%)	5 (Grade 5: the growth control rate is greater than or equal to 85%)	5 (Grade 5: the growth control rate is greater than or equal to 85%)	5 (Grade 5: the growth control rate is greater than or equal to 85%)
O=C1C2=C(CCCC2)C(=O)N1c1cc(OCc2nnc(-c3cccc(Br)c3)o2)c(Cl)cc1F [Compound B10]	2 (Grade 2: the growth control rate is greater than or equal to 20% and less than 40%)	3 (Grade 3: the growth control rate is greater than or equal to 40% and less than 60%)	4 (Grade 4: the growth control rate is greater than or equal to 60% and less than 85%)	1 (Grade 1: the growth control rate is greater than or equal to 5% and less than 20%)	2 (Grade 2: the growth control rate is greater than or equal to 20% and less than 40%)	3 (Grade 3: the growth control rate is greater than or equal to 40% and less than 60%)	4 (Grade 4: the growth control rate is greater than or equal to 60% and less than 85%)	5 (Grade 5: the growth control rate is greater than or equal to 85%)	5 (Grade 5: the growth control rate is greater than or equal to 85%)	5 (Grade 5: the growth control rate is greater than or equal to 85%)	5 (Grade 5: the growth control rate is greater than or equal to 85%)	5 (Grade 5: the growth control rate is greater than or equal to 85%)	4 (Grade 4: the growth control rate is greater than or equal to 60% and less than 85%)	5 (Grade 5: the growth control rate is greater than or equal to 85%)	5 (Grade 5: the growth control rate is greater than or equal to 85%)	5 (Grade 5: the growth control rate is greater than or equal to 85%)	5 (Grade 5: the growth control rate is greater than or equal to 85%)	5 (Grade 5: the growth control rate is greater than or equal to 85%)
O=C1C2=C(CCCC2)C(=O)N1c1cc(OCc2nc(-c3ccccc3F)no2)c(Cl)cc1F [Compound A12]	2 (Grade 2: the growth control rate is greater than or equal to 20% and less than 40%)	3 (Grade 3: the growth control rate is greater than or equal to 40% and less than 60%)	4 (Grade 4: the growth control rate is greater than or equal to 60% and less than 85%)	1 (Grade 1: the growth control rate is greater than or equal to 5% and less than 20%)	2 (Grade 2: the growth control rate is greater than or equal to 20% and less than 40%)	3 (Grade 3: the growth control rate is greater than or equal to 40% and less than 60%)	5 (Grade 5: the growth control rate is greater than or equal to 85%)	5 (Grade 5: the growth control rate is greater than or equal to 85%)	5 (Grade 5: the growth control rate is greater than or equal to 85%)	4 (Grade 4: the growth control rate is greater than or equal to 60% and less than 85%)	5 (Grade 5: the growth control rate is greater than or equal to 85%)	5 (Grade 5: the growth control rate is greater than or equal to 85%)	5 (Grade 5: the growth control rate is greater than or equal to 85%)	5 (Grade 5: the growth control rate is greater than or equal to 85%)	5 (Grade 5: the growth control rate is greater than or equal to 85%)	4 (Grade 4: the growth control rate is greater than or equal to 60% and less than 85%)	5 (Grade 5: the growth control rate is greater than or equal to 85%)	5 (Grade 5: the growth control rate is greater than or equal to 85%)
O=C1C2=C(CCCC2)C(=O)N1c1ccc(Cl)c(OCc2nc(-c3cc(F)cc(Br)c3)no2)c1F [Compound A13, 2-(3-(3-(3-(3-bromo-5-fluorophenyl)-1,2,4-oxadiazole-5-yl)methoxy)-4-chloro-2-fluorophenyl)-4,5,6,7-tetrahydro-1H-isoindole-1,3(2H)-dione]	2 (Grade 2: the growth control rate is greater than or equal to 20% and less than 40%)	3 (Grade 3: the growth control rate is greater than or equal to 40% and less than 60%)	4 (Grade 4: the growth control rate is greater than or equal to 60% and less than 85%)	1 (Grade 1: the growth control rate is greater than or equal to 5% and less than 20%)	2 (Grade 2: the growth control rate is greater than or equal to 20% and less than 40%)	3 (Grade 3: the growth control rate is greater than or equal to 40% and less than 60%)	5 (Grade 5: the growth control rate is greater than or equal to 85%)	5 (Grade 5: the growth control rate is greater than or equal to 85%)	5 (Grade 5: the growth control rate is greater than or equal to 85%)	4 (Grade 4: the growth control rate is greater than or equal to 60% and less than 85%)	5 (Grade 5: the growth control rate is greater than or equal to 85%)	5 (Grade 5: the growth control rate is greater than or equal to 85%)	5 (Grade 5: the growth control rate is greater than or equal to 85%)	5 (Grade 5: the growth control rate is greater than or equal to 85%)	5 (Grade 5: the growth control rate is greater than or equal to 85%)	4 (Grade 4: the growth control rate is greater than or equal to 60% and less than 85%)	5 (Grade 5: the growth control rate is greater than or equal to 85%)	5 (Grade 5: the growth control rate is greater than or equal to 85%)
